Experimental findings from US20110178456A1, “ASSISTING TRANSDERMAL DRUG DELIVERY BY MEANS OF TISSUE FREEZING, VACUUM PRESSURE AND PHOTOHEATING PROCEDURES” (THE REGENTS OF THE UNIVERSITY OF CALIFORNIA, priority 2009, published 2011) are described below.

Data set [1] in a line: Case clinical study: penetration after topical application with cryo-cracking versus simple rubbing. In kind it is in vivo. The note with it: 3 hrs after topical application using cryo-cracking procedure. From the text:
This study also included FITC with Dextran of 4 kDa and 70 kDA.

Data set [2] is classed as in vitro ADME, pork. The procedure:
A study comprising applying conjugated FITC-Dextran with 4000 Daltons molecular weight as a surrogate of water-soluble drugs on ex vivo pork skin samples was performed. Thermoelectric coolers and other cooling devices can be used as well. In these experiments […] was used as the cryogenic agent. Exposure time can range from minutes to millisecond exposures, depending on the type of coolant used. […] For applying suction, any method of creating suction or positive pressure on the skin can be used. For example, the Isolaze device from […] can be used to apply a suction of 380 mm Hg. To investigate this, a study was initiated consisting of applying conjugated FITC-Dextran with 4000 Daltons molecular weight as a surrogate of water-soluble drugs on ex vivo pork skin samples. After exposing skin samples for 30 min to 3 hours after topical application, a cross-sections of skin was cut ( 20 microns thick) to observe directly the Dextran penetration via the intensity of the FITC fluorescence with the aid of a confocal fluorescent microscope.

Consider `O=C1OC2(c3ccc(O)cc3Oc3cc(O)ccc32)c2ccc(N=C=S)cc21` [FITC], for which the “penetration into the stratum corneum and epidermis down the microcracks, compared to penetration after simple rubbing” value in data set [1] is on record as “much more significant”. In addition, the “transdermal delivery of drug surrogate using the cryo-cracking process” value in data set [2] was “effectively delivered”.
Consider Dylight, for which the “transdermal delivery of drug surrogate using the cryo-cracking process” value in data set [2] is listed as “delivered”.
